Data from the Kinase Knowledgebase extract (Sharma et al. 2016).

Target: PIK3CA (human) (UniProt P42336)
Assay: Assessment of PIK3CA Kinase Activity

Chain of PIK3CA (human) (P42336 whole entry, looked up): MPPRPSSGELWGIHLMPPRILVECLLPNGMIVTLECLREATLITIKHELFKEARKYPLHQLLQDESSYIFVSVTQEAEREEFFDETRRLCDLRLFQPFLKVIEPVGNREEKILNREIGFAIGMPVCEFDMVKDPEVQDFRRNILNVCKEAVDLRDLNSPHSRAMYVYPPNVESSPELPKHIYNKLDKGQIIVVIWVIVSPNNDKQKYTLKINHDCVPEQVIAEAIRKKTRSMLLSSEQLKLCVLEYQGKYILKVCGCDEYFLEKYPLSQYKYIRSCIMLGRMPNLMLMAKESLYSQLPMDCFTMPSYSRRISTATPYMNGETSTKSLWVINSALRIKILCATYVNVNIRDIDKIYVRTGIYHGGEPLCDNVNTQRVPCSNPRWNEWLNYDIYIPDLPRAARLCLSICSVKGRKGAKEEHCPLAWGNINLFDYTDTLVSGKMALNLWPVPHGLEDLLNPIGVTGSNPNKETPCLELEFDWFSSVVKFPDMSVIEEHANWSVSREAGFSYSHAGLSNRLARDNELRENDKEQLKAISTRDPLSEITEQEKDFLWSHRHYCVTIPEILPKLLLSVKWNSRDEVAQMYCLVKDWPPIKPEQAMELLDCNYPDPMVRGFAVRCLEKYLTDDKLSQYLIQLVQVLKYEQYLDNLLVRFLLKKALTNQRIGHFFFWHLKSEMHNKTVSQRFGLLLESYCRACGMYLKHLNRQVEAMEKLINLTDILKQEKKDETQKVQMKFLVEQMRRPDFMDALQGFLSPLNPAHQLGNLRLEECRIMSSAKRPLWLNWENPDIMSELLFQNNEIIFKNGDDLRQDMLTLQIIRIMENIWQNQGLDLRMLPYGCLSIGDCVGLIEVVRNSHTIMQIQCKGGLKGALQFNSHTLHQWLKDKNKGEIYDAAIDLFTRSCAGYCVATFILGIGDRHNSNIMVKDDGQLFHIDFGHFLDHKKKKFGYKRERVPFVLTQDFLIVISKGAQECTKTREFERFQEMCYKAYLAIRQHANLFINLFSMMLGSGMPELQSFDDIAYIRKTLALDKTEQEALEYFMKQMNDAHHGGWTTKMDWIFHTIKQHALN

| SMILES | IC50 |
| --- | --- |
| CC(C)n1ncnc1-c1cc2c(s1)-c1ccc(-c3cccc(S(C)(=O)=O)c3)cc1OCC2 | < 1000 nM |
| CC(C)n1ncnc1-c1cc2c(s1)-c1ccc(-c3cnn(CCO)c3)cc1OCC2 | < 1000 nM |
| COc1ccccc1-c1ccc2c(c1)-c1nc(-c3ncnn3C(C)C)sc1CCO2 | < 1000 nM |
| CC(C)n1ncnc1-c1nc2c(s1)CCOc1ccc(C3CN(CC(C)(C)O)C3)cc1-2 | < 1000 nM |
| Cc1nc(-c2nc3c(s2)CCOc2cc(C(C)NC(N)=O)ccc2-3)n(C(C)C)n1 (stereo not drawn) | < 1000 nM |
| Fc1ccc(-n2ncnc2-c2cc3c(s2)-c2nc(-c4ccc(NCCN5CCOCC5)nc4)ccc2OCC3)c(F)c1 | < 1000 nM |
| O=C(NCC(F)F)c1ccc2c(c1)OCCc1sc(-c3ncnn3CC(F)(F)F)nc1-2 | < 1000 nM |
| CC(C)n1nc(N)nc1-c1nc2c(s1)CCOc1cc(-c3cnn(CC4(C)COC4)c3)ccc1-2 | < 1000 nM |
| CN(C(=O)c1cc2c(s1)-c1ccc(C(=O)NCCS(C)(=O)=O)cc1OCC2)c1cc(C(=O)N2CC(O)C2)ccc1Cl | < 1000 nM |
| COCC(O)CN1CC(c2ccc3c(c2)OCCc2sc(-c4nc(C)nn4C(C)C)nc2-3)C1 (stereo not drawn) | < 1000 nM |
| CC(C)n1ncnc1-c1nc2c(s1)CCOc1ccc(-c3cccnc3C(F)(F)F)cc1-2 | < 1000 nM |
| CC(C)n1ncnc1-c1nc2c(s1)CCOc1ccc(C(O)C(F)(F)F)cc1-2 (stereo not drawn) | < 1000 nM |
| CC(=O)N1CC(Nc2ccc3c(n2)-c2sc(-c4ncnn4-c4ccc(F)cc4F)cc2CCO3)C1 | < 1000 nM |
| COCCNC(=O)c1ccc2c(c1)OCCc1sc(-c3ncnn3C(C)C)nc1-2 | < 1000 nM |
| Cc1ccncc1-c1ccc2c(c1)-c1nc(C(=O)N(CCO)C(C)C)sc1CCO2 | < 1000 nM |
| CC(C)N1CC(c2ccc3c(c2)OCCc2sc(-c4ncnn4C(C)C)nc2-3)C1 | < 1000 nM |
| CN1CC(Nc2ccc3c(n2)-c2sc(-c4ncnn4-c4ccc(F)cc4F)cc2CCO3)C1 | < 1000 nM |
| CC(C)n1ncnc1-c1nc2c(s1)CCOc1cc(C3CCN(S(C)(=O)=O)C3)ccc1-2 (stereo not drawn) | < 1000 nM |
| NC(=O)CNc1ccc2c(n1)-c1sc(-c3ncnn3-c3ccc(F)cc3F)cc1CCO2 | < 1000 nM |

| SMILES | IC50 |
| --- | --- |
| O=C1CN(c2ccc3c(n2)-c2sc(-c4ncnn4-c4ccc(F)cc4F)cc2CCO3)CCN1 | < 1000 nM |
| CC1(C)C(=O)N(CCN)C(=O)N1c1nc2c(s1)CCOc1ccccc1-2 | < 1000 nM |
| CC(C)n1ncnc1-c1nc2c(s1)CCOc1cc(O[C@H](C)C(N)=O)ccc1-2 | < 1000 nM |
| CN1CCN(c2ccc(-c3ccc4c(n3)-c3sc(-c5ncnn5-c5ccc(F)cc5F)cc3CCO4)cn2)CC1 | < 1000 nM |
| CCn1ccc(-c2ccc3c(c2)OCCc2sc(-c4ncnn4C(C)C)nc2-3)cc1=O | < 1000 nM |
| Oc1ccc(-c2ccc3c(n2)-c2sc(-c4ncnn4-c4ccc(F)cc4F)cc2CCO3)cn1 | < 1000 nM |
| COc1ncccc1-c1ccc2c(n1)-c1sc(-c3ncnn3-c3ccc(F)cc3F)cc1CCO2 | < 1000 nM |
| Fc1ccc(-n2ncnc2-c2cc3c(s2)-c2nc(-c4ccc(N5CCCC5)nc4)ccc2OCC3)c(F)c1 | < 1000 nM |
| CC(C)n1ncnc1-c1nc2c(s1)CCOc1cc(C3CN(CC(=O)N4CCOCC4)C3)ccc1-2 | < 1000 nM |
| COc1ncccc1-c1ccc2c(c1)-c1nc(-c3ncnn3C(C)C)sc1CCO2 | < 1000 nM |
| CC(C)n1ncnc1-c1nc2c(s1)CCOc1cc(O[C@@H](C)C(N)=O)ccc1-2 | < 1000 nM |
| CC(C)(C(N)=O)n1cc(-c2ccc3c(c2)OCCc2sc(-c4ncnn4CC(F)(F)F)nc2-3)cn1 | < 1000 nM |
| Cc1ncccc1-c1ccc2c(c1)-c1nc(C(=O)N(CCO)C(C)C)sc1CCO2 | < 1000 nM |
| CC(O)Cn1ncnc1-c1nc2c(s1)CCOc1cc(-c3cnn(CC(C)(C)O)c3)ccc1-2 (stereo not drawn) | < 1000 nM |
| CC(C)n1ncnc1-c1nc2c(s1)CCOc1ccc(-c3c[nH]c(=O)[nH]c3=O)cc1-2 | < 1000 nM |
| CC(C)n1ncnc1-c1nc2c(s1)CCOc1ccc(C3CN(C(=O)[C@H](C)O)C3)cc1-2 | < 1000 nM |
| CC(C)(O)Cn1cc(-c2ccc3c(c2)OCCc2sc(-c4ncnn4Cc4ccccn4)nc2-3)cn1 | < 1000 nM |
| CN(C)CCCOc1ccc(-c2ccc3c(c2)OCCc2sc(-c4ncnn4CC(F)(F)F)nc2-3)cn1 | < 1000 nM |
| FC(F)(F)Cn1ncnc1-c1nc2c(s1)CCOc1cc(-c3cnn(CCN4CCOCC4)c3)ccc1-2 | < 1000 nM |

| SMILES | IC50 |
| --- | --- |
| CC(C)n1ncnc1-c1nc2c(s1)CCOc1cc(C3CN(S(=O)(=O)CCO)C3)ccc1-2 | < 1000 nM |
| COCc1nc(-c2nc3c(s2)CCOc2ccccc2-3)n(C(C)C)n1 | < 1000 nM |
| CC(C)n1ncnc1-c1nc2c(s1)CCOc1ccc(-c3ccc(=O)n(C)c3)cc1-2 | < 1000 nM |
| COc1cc(C)c(-c2ccc3c(n2)-c2sc(-c4ncnn4-c4ccc(F)cc4F)cc2CCO3)cn1 | < 1000 nM |
| CC(C)n1ncnc1-c1nc2c(s1)CCOc1cc(C3CN(Cc4ncco4)C3)ccc1-2 | < 1000 nM |
| OC1CCN(c2ccc3c(n2)-c2sc(-c4ncnn4-c4ccc(F)cc4F)cc2CCO3)CC1 | < 1000 nM |
| CC(C)n1ncnc1-c1nc2c(s1)CCOc1ccc(C3CN(Cc4ccccc4Cl)C3)cc1-2 | < 1000 nM |
| CC(C)n1ncnc1-c1nc2c(s1)CCOc1ccc(C3CN(C(=O)OC(C)(C)C)C3)cc1-2 | < 1000 nM |
| CS(=O)(=O)c1cccc(-c2ccc3c(c2)OCCc2sc(-c4ncnn4CC(F)(F)F)nc2-3)c1 | < 1000 nM |
| CC(C)n1ncnc1-c1cc2c(s1)-c1ccc(C3CNC3)cc1OCC2 | < 1000 nM |
| CC(C)n1ncnc1-c1nc2c(s1)CCOc1ccc(-c3cccn(C)c3=O)cc1-2 | < 1000 nM |
| COCCn1cccc(-c2ccc3c(c2)-c2nc(-c4ncnn4C(C)C)sc2CCO3)c1=O | < 1000 nM |
| CC(C)n1ncnc1-c1nc2c(s1)CCOc1cc(C3CN(C(=O)C(C)(C)O)C3)ccc1-2 | < 1000 nM |
| OCCn1cc(-c2ccc3c(c2)OCCc2sc(-c4ncnn4-c4ccc(F)cc4F)nc2-3)cn1 | < 1000 nM |
| Fc1ccc(-n2ncnc2-c2cc3c(s2)-c2nc(NCC4CCCC4)ccc2OCC3)c(F)c1 | < 1000 nM |
| CC(C)n1ncnc1-c1nc2c(s1)CCOc1ccc(C3CCCC3)cc1-2 | < 1000 nM |
| CC(C)n1ncnc1-c1nc2c(s1)CCOc1cc(C3CN(CCS(=O)(=O)N4CC(F)(F)C4)C3)ccc1-2 | < 1000 nM |
| CC(C)n1ncnc1-c1nc2c(s1)CCOc1ccc(-c3cccnc3F)cc1-2 | < 1000 nM |

Now from value to molecule:

| IC50 | SMILES |
| --- | --- |
| < 1000 nM | CC(C)N(CCO)C(=O)c1nc2c(s1)CCOc1ccc(-c3cnn(CC(C)(C)O)c3)cc1-2 |
| < 1000 nM | O=C(c1nc2c(s1)CCOc1cc(-c3cn[nH]c3)ccc1-2)N1CCC(C(=O)N2CCCC2)CC1 |
| < 1000 nM | CC(C)(O)Cn1cc(-c2ccc3c(c2)OCCc2sc(-c4ncnn4C4CCN(CCO)CC4)nc2-3)cn1 |
| < 1000 nM | CN(CCc1ccccc1)C(=O)c1nc2c(s1)CCOc1cc(-c3cn[nH]c3)ccc1-2 |
| < 1000 nM | CC(C)n1ncnc1-c1nc2c(s1)CCOc1cc(C3CCN(CC(N)=O)CC3)ccc1-2 |
| < 1000 nM | CN1CCC(N(C)C(=O)c2nc3c(s2)CCOc2cc(-c4cn[nH]c4)ccc2-3)C1 (stereo not drawn) |
| < 1000 nM | O=C(c1nc2c(s1)CCOc1cc(-c3cn[nH]c3)ccc1-2)N1CC(F)(F)C1 |
| < 1000 nM | CCN(CC)[C@@H]1CCN(C(=O)c2nc3c(s2)CCOc2cc(-c4cn[nH]c4)ccc2-3)C1 |
| < 1000 nM | CC(C)N(CCO)C(=O)c1nc2c(s1)CCOc1cc(-c3cnn(C)c3)ccc1-2 |
| < 1000 nM | O=C(c1nc2c(s1)CCOc1cc(-c3cn[nH]c3)ccc1-2)N1CCN(CCO)CC1 |
| < 1000 nM | O=C(c1nc2c(s1)CCOc1cc(-c3cn[nH]c3)ccc1-2)N1CCNCC1 |
| < 1000 nM | CN(C)S(=O)(=O)N1CCN(C(=O)c2nc3c(s2)CCOc2cc(-c4cn[nH]c4)ccc2-3)CC1 |
| < 1000 nM | CC(C)N1CC[C@H](CN(C)C(=O)c2nc3c(s2)CCOc2cc(-c4cn[nH]c4)ccc2-3)C1 |
| < 1000 nM | COCCN1CCN(C(=O)c2nc3c(s2)CCOc2cc(-c4cn[nH]c4)ccc2-3)CC1 |
| < 1000 nM | O=C(c1nc2c(s1)CCOc1cc(-c3cn[nH]c3)ccc1-2)N1CCN(C[C@H]2CCCO2)CC1 |
| < 1000 nM | CC(C)(O)Cn1cc(-c2ccc3c(c2)OCCc2sc(-c4ncnn4CCN4CCOCC4)nc2-3)cn1 |
| < 1000 nM | CC(C)C[C@@H](CO)NC(=O)c1nc2c(s1)CCOc1cc(-c3cn[nH]c3)ccc1-2 |
| < 1000 nM | O=C(c1ccccc1)N1CCN(C(=O)c2nc3c(s2)CCOc2cc(-c4cn[nH]c4)ccc2-3)CC1 |
| < 1000 nM | CN(C[C@@H](O)CO)C(=O)c1nc2c(s1)CCOc1cc(-c3cn[nH]c3)ccc1-2 |

| IC50 | SMILES |
| --- | --- |
| < 1000 nM | O=C(O)C1CCCN(C(=O)c2nc3c(s2)CCOc2cc(-c4cn[nH]c4)ccc2-3)C1 (stereo not drawn) |
| < 1000 nM | O=C(c1nc2c(s1)CCOc1cc(-c3cn[nH]c3)ccc1-2)N1CCN(c2cnccn2)CC1 |
| < 1000 nM | CN1CCN(C(=O)c2nc3c(s2)CCOc2cc(-c4cn[nH]c4)ccc2-3)CC1 |
| < 1000 nM | Cc1nn(C(C)C)c(=O)n1-c1nc2c(s1)CCOc1cc(-c3cnn(CC(C)(C)O)c3)ccc1-2 |
| < 1000 nM | CC(C)n1ncnc1-c1nc2c(s1)CCOc1cc(CN3CCC[C@H]3C(N)=O)ccc1-2 |
| < 1000 nM | C[C@H]1COCCN1C(=O)c1nc2c(s1)CCOc1cc(-c3cn[nH]c3)ccc1-2 |
| < 1000 nM | CN(C)[C@@H]1CCN(C(=O)c2nc3c(s2)CCOc2cc(-c4cn[nH]c4)ccc2-3)C1 |
| < 1000 nM | O=C(c1nc2c(s1)CCOc1cc(-c3cn[nH]c3)ccc1-2)N1CCC(c2ccc(F)cc2F)CC1 |
| < 1000 nM | CN(CC(=O)N1CCOCC1)C(=O)c1nc2c(s1)CCOc1cc(-c3cn[nH]c3)ccc1-2 |
| < 1000 nM | CC(C)(C)n1nc(N)nc1-c1nc2c(s1)CCOc1cc(-c3cn[nH]c3)ccc1-2 |
| < 1000 nM | Cc1cccc(N2CCN(C(=O)c3nc4c(s3)CCOc3cc(-c5cn[nH]c5)ccc3-4)CC2)n1 |
| < 1000 nM | CC(C)N(CCO)C(=O)c1nc2c(s1)CCOc1cc(-c3cnn(CC(C)(C)O)c3)ccc1-2 |
| < 1000 nM | CC(=O)N1CCN(C(=O)c2nc3c(s2)CCOc2cc(-c4cn[nH]c4)ccc2-3)CC1 |
| < 1000 nM | CC(C)(C)C1CCN(C(=O)c2nc3c(s2)CCOc2cc(-c4cn[nH]c4)ccc2-3)CC1 |
| < 1000 nM | CC(C)n1ncnc1-c1nc2c(s1)CCOc1cc(C3CCN(CC(=O)N(C)C)CC3)ccc1-2 |
| < 1000 nM | CN(C)C(=O)c1nc2c(s1)CCOc1cc(-c3cn[nH]c3)ccc1-2 |
| < 1000 nM | O=C(c1nc2c(s1)CCOc1cc(-c3cn[nH]c3)ccc1-2)N1CCCC[C@@H]1CO |
| < 1000 nM | CN1C(=O)N(c2nc3c(s2)CCOc2cc(-c4cnn(CC(C)(C)O)c4)ccc2-3)C(C)(C)C1=O |
